Where two headings read alike, the source gives them in different places.
How the values were obtained:
Type in all cases: in vivo
Rhizoctonia solani [1] = assay: Control of Rhizoctonia solani disease in tobacco (Rs-Nt); details: 1 μM spraying every 24 hours for one week, water control 87
Phytophthora parasitica = assay: Control of Phytophthora parasitica disease in tobacco (Pp-Nt); details: 1 μM spraying every 24 hours for one week, water control 91
[2] = test system: Candidatus 'Liberibacter asiaticus'; details: spraying every 15 days, 12 months after treatment, Citrus sinensis with HLB
Botrytis cinerea [3] = assay: Control of Botrytis cinerea disease in Arabidopsis (Bc-At); details: 1 μM spraying every 24 hours for one week, water control 8.7
Method in brief: (§1)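 Fifty pre-inoculated plants per treatment received 1 μM compound sprays daily for a week; water-sprayed plants served as controls. Disease scored as plant mortality (Nocardia), share of leaves with symptoms (A. solani) or lesion diameter (B. cinerea).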

Meloidogyne incognita = assay: Nematode control, nodules per plant: Meloidogyne incognita; details: 1 μM foliar application every 5 days, evaluation 35 days after, control 34
Method in brief: (§2)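 Compounds in ethanol, diluted in water to 1 μM, sprayed on leaves only every 5 days. Ten plants per treatment; nodules per plant counted at 35 days.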

Nocardia sp = assay: Control of Nocardia sp disease in tobacco (N-Nt); details: 1 μM spraying every 24 hours for one week, water control 58
Method in brief: as §1

Radopholus similis = assay: Nematode control, nodules per plant: Radopholus similis; details: 1 μM foliar application every 5 days, evaluation 35 days after, control 45
Method in brief: as §2

Botrytis cinerea [4] = assay: Control of Botrytis cinerea disease in tomato (Bc-SI); details: 1 μM spraying every 24 hours for one week, water control 7.4
Method in brief: as §1

Rhizoctonia solani [5] = assay: Control of Rhizoctonia solani disease in tomato (Rs-SI); details: 1 μM spraying every 24 hours for one week, water control 96
Alternaria solani = assay: Control of Alternaria solani disease in tomato (As-SI); details: 1 μM spraying every 24 hours for one week, water control 68
Method in brief: as §1

Botrytis cinerea [6] = assay: Control of Botrytis cinerea disease in tobacco (Bc-Nt); details: 1 μM spraying every 24 hours for one week, water control 6.7
Method in brief: as §1

Pratylenchus coffeae = assay: Nematode control, nodules per plant: Pratylenchus coffeae; details: 1 μM foliar application every 5 days, evaluation 35 days after, control 42
Method in brief: as §2

Compound | Rs-Nt: percentage of mortality (Rhizoctonia solani [1]) | Pp-Nt: percentage of mortality (Phytophthora parasitica) | Titers of the bacterium ([2]; 0.001 μM) | Titers of the bacterium ([2]; 0.01 μM) | Titers of the bacterium ([2]; 1 μM) | Titers of the bacterium ([2]; 5 μM) | Titers of the bacterium ([2]; 10 μM) | Bc-At: mean of the diameter of the lesion (Botrytis cinerea [3]) | Mi: number of nodules per plant (Meloidogyne incognita) | N-Nt: percentage of mortality (Nocardia sp) | Rs: number of nodules per plant (Radopholus similis) | Bc-SI: mean of the diameter of the lesion (Botrytis cinerea [4]) | Rs-SI: percentage of mortality (Rhizoctonia solani [5]) | As-SI: percentage of leaves with the disease symptoms (Alternaria solani) | Bc-Nt: mean of the diameter of the lesion (Botrytis cinerea [6]) | Pc: number of nodules per plant (Pratylenchus coffeae)
O=C(c1cnc(N2CCNCC2)nc1)N1CC2CC(O)C(O)CC2C1 (stereo not drawn) [IIII, 2-{[2-(piperazin-1-yl)pyrimidin-5-yl]carbonyl}-octahydro-1H-isoindole-5,6-diol] | 3% | 2% | 435 copies per reaction | 9 copies per reaction | 8 copies per reaction | 45 copies per reaction | 8654 copies per reaction | 1.2 mm | 3 | 1% | 2 | 0.8 mm | 2% | 2% | 0.3 mm | 12
Cc1nc(N2CCNCC2)ncc1C(=O)N1CC2CC(O)C(O)CC2C1 (stereo not drawn) [IIIJ, 2-{[4-methyl-2-(piperazin-1-yl)pyrimidin-5-yl]carbonyl}-octahydro-1H-isoindole-5,6-diol] | 4% | 1% | 578 copies per reaction | 0 copies per reaction | 7 copies per reaction | 578 copies per reaction | 7546 copies per reaction | 1.1 mm | 4 | 2% | 12 | 1.6 mm | 2% | 3% | 2.0 mm | 2
O=C(c1cnc(N2CCN(n3cccc3)CC2)nc1)N1CC2CC(O)C(O)CC2C1 (stereo not drawn) [IIIK, 2-({2-[4-(1H-pyrrol-1-yl)piperazin-1-yl]pyrimidin-5-yl}carbonyl)-octahydro-1H-isoindole-5,6-diol] | 0% | 0% | 635 copies per reaction | 0 copies per reaction | 3 copies per reaction | 65 copies per reaction | 8420 copies per reaction | 0.5 mm | 0 | 1% | 0 | 0.8 mm | 2% | 8% | 0.9 mm | 14
Cc1nc(N2CCN(n3cccc3)CC2)ncc1C(=O)N1CC2CC(O)C(O)CC2C1 (stereo not drawn) [IIIL, 2-({4-methyl-2-[4-(1H-pyrrol-1-yl)piperazin-1-yl]pyrimidin-5-yl}carbonyl)-octahydro-1H-isoindole-5,6-diol] | 0% | 0% | 524 copies per reaction | 0 copies per reaction | 6 copies per reaction | 54 copies per reaction | 5840 copies per reaction | 1.5 mm | 0 | 0% | 0 | 2.5 mm | 0% | 7% | 1.5 mm | 0
Cc1c2c(oc(=O)c1CC(=O)NCC(O)CO)C=CC1C(C3CCCCC3)=COC21 (stereo not drawn) [IIJ, 2-{5-cyclohexyl-13-methyl-11-oxo-3,10-dioxatricyclo[7.4.0.0^{2,6}]trideca-1(9),4,7,12-tetraen-12-yl)-N-(2,3-dihydroxypropyl)acetamide] | 4% | 1% | 435 copies per reaction | 1 copies per reaction | 1 copies per reaction | 45 copies per reaction | 6541 copies per reaction | 0.7 mm | 4 | 2% | 12 | 1.2 mm | 2% | 3% | 0.9 mm | 2
Cc1c2c(oc(=O)c1CC(=O)NCC(O)CO)C=CC1C(C3CCCC3)=COC21 (stereo not drawn) [IIK, 2-{5-cyclopentyl-13-methyl-11-oxo-3,10-dioxatricyclo[7.4.0.0^{2,6}]trideca-1(9),4,7,12-tetraen-12-yl}-N-(2,3-dihydroxypropyl)acetamide] | 0% | 0% | 578 copies per reaction | 8 copies per reaction | 0 copies per reaction | 78 copies per reaction | 2365 copies per reaction | 1.2 mm | 0 | 1% | 0 | 0.8 mm | 2% | 8% | 0.3 mm | 14
Cc1c2c(oc(=O)c1CC(=O)NCC(O)CO)C=CC1C(c3ccc4ccccc4c3)=COC21 (stereo not drawn) [IIL, N-(2,3-dihydroxypropyl)-2-[13-methyl-5-(naphthalen-2-yl)-11-oxo-3,10-dioxatricyclo[7.4.0.0^{2,6}]trideca-1(9),4,7,12-tetraen-12-yl]acetamide] | 0% | 0% | 635 copies per reaction | 1 copies per reaction | 0 copies per reaction | 65 copies per reaction | 5478 copies per reaction | 1.1 mm | 0 | 0% | 0 | 1.6 mm | 0% | 7% | 2.0 mm | 0
Cc1c2c(oc(=O)c1CC(=O)NCC(O)CO)C=CC1C=COC21 (stereo not drawn) [IIM, N-(2,3-dihydroxypropyl)-2-{13-methyl-11-oxo-3,10-dioxatricyclo[7.4.0.0^{2,6}]trideca-1(9),4,7,12-tetraen-12-yl}acetamide] | 0% | 0% | 524 copies per reaction | 0 copies per reaction | 0 copies per reaction | 54 copies per reaction | 8542 copies per reaction | 0.5 mm | 0 | 0% | 0 | 0.8 mm | 1% | 5% | 0.9 mm | 0
Cc1c2c(oc(=O)c1CC(=O)NCC(O)CO)C=CC1C(n3cccc3)=COC21 (stereo not drawn) [IIN, N-(2,3-dihydroxypropyl)-2-[13-methyl-11-oxo-5-(1H-pyrrol-1-yl)-3,10-dioxatricyclo[7.4.0.0^{2,6}]trideca-1(9),4,7,12-tetraen-12-yl]acetamide] | 0% | 3% | 598 copies per reaction | 0 copies per reaction | 0 copies per reaction | 98 copies per reaction | 9654 copies per reaction | 1.5 mm | 0 | 0% | 3 | 2.5 mm | 1% | 7% | 1.5 mm | 0

From patent US11013235B2 (priority 2015, dated 2021)
